Data as given in US9745307B2, “Compounds that are ERK inhibitors” (Merck Sharp & Dohme Corp., priority 2013, dated 2017).

Each molecule was assayed against phosphorylated active hERK2 enzyme (Homo sapiens (Human), UniProt P28482) (assay: Active Human ERK2 (hERK2) Activity Assay (IMAP-FP)). Conditions: 0.5 nM hERK2, 30 μM ATP, 60 minutes reaction; read-out: ERK 2 Human average IC50.
Type: biochemical
Protocol: Active Human ERK2 (hERK2) Activity Assay:
Activated ERK2 activity was determined in an IMAP-FP assay (Molecular Devices).

phosphorylated active hERK2 enzyme, sequence (P28482 whole entry): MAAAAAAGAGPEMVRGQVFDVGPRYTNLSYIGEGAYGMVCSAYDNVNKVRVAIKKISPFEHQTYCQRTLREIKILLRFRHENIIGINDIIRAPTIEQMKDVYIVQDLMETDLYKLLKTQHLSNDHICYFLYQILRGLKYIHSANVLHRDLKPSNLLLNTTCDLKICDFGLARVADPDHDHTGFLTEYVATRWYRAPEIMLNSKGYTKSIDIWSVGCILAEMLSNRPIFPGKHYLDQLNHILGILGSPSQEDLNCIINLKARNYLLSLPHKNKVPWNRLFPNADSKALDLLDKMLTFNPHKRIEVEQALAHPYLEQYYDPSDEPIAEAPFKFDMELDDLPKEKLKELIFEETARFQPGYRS

| Compound | IC50 [µM] |
| --- | --- |
| Cc1cc(-c2n[nH]c3cc4c(cc23)CCC(=O)N4O)ccn1 [Example 8, 8-hydroxy-3-(2-methylpyridin-4-yl)-5,6-dihydro-1H-pyrazolo[4,3-g]quinolin-7(8H)-one] | 0.0036 |
| C[C@H](c1ccccc1)N1Cc2cc3c(-c4ccc5nnn(C)c5c4)n[nH]c3cc2NC1=O [Example 26, (R)-3-(1-methyl-1H-benzo[d][1,2,3]triazol-6-yl)-6-(1-phenylethyl)-5,6-dihydro-1H-pyrazolo[4,3-g]quinazolin-7(8H)-one] | 0.0003 |
| CCNc1n[nH]c2cc3c(cc12)CN([C@H](C)c1ccccc1)C(=O)N3 [Example 29, (R)-3-(ethylamino)-6-(1-phenylethyl)-5,6-dihydro-1H-pyrazolo[4,3-g]quinazolin-7(8H)-one] | 0.022 |
| C[C@H](c1ccccc1)N1Cc2cc3c(N[C@@H](C)C(F)(F)F)n[nH]c3cc2NC1=O [Example 30, 6-((R)-1-phenylethyl)-3-(((S)-1,1,1-trifluoropropan-2-yl)amino)-5,6-dihydro-1H-pyrazolo[4,3-g]quinazolin-7(8H)-one] | 0.025 |
| C[C@H](c1ccccc1)N1Cc2cc3cn[nH]c3cc2NC1=O [Example 31, (R)-6-(1-phenylethyl)-5,6-dihydro-1H-pyrazolo[4,3-g]quinazolin-7(8H)-one] | 0.055 |
| C[C@H](c1ccccc1)N1Cc2cc3c(N)n[nH]c3cc2NC1=O [Example 32, (R)-3-amino-6-(1-phenylethyl)-5,6-dihydro-1H-pyrazolo[4,3-g]quinazolin-7(8H)-one] | 0.021 |
| COC(=O)Nc1n[nH]c2cc3c(cc12)CN([C@H](C)c1ccccc1)C(=O)N3 [Example 33, (R)-methyl(7-oxo-6-(1-phenylethyl)-5,6,7,8-tetrahydro-1H-pyrazolo[4,3-g]quinazolin-3-yl)carbamate] | 0.0052 |
| C[C@H](c1ccccc1)n1c(=O)[nH]c2cc3[nH]nc(N)c3cc2c1=O [Example 44, (R)-3-amino-6-(1-phenylethyl)-1H-pyrazolo[4,3-g]quinazoline-5,7(6H,8H)-dione] | 0.045 |
